Common to all, as to assay type: cell-based, human
The test system of assay [1] is MCF7TDX cells. Nature of the assay: 384-well alamarBlue interaction screening assay with NB1011. Conditions: drug combined with NB1011, 5-day incubation, average of at least 4 consecutive dose/effect levels. On the procedure:
(§1) Normal human colon epithelial cells (CCD18co) and skin fibroblasts (Det551) were purchased from ATCC (Rockville, Md.). MCF7TDX, human breast carcinoma cells resistant to 2 μM Tomudex were obtained from Dr. Patrick Johnston, Queens University, Belfast. […] The MCF7TDX and the H630R10 cell lines have been previously described in Drake, J. C. et al., 1996 and Copur, S. et al., 1995, respectively.
(§2) All cells were cultured under standard conditions of 37° C., 95% humidified air, 5% CO2 in RPMI 1640 culture medium containing 10% fetal calf serum (Life Technologies) and penicillin/streptomycin/fungizone. MCF7TDX cells were maintained continuously in 2 μM Tomudex, and H630R10 cells were maintained continuously in 10 μM 5-FU. The medium was renewed or the cells were passaged about every three days to maintain optimal growth conditions. Normal cells were passaged a maximum of 15 times to avoid senescence.
(§3) 500 cells per well were transferred to a 384-well tissue culture plate (Corning Inc., Corning, N.Y.) and allowed to attach for 24 hours in standard culture conditions. Compounds were then applied in a bidirectional (checker board) pattern (Chou, T. C. and Talalay, P. 1984). Following a 5-day incubation, the redox indicator dye, alamarBlue (AccuMed International, Westlake, Ohio) was added to each well at a 10% v/v ratio, and fluorescence was monitored at 535 excitation, 595 emission. Cytotoxic effect levels and drug interactions were assessed by the combination index method (Chou, T. C. and Talalay, P. 1984 and Bible, K. C. et al. 1997), described briefly below.
(§4) Only experiments with linear correlation coefficients (r)>0.9 were accepted for analysis. A combination index (CI) was then calculated to assess synergism or antagonism according to the following equation which assumes an independent mechanism of drug action (mutual exclusivity):
(§5) CI=(D)1/(Dx)1+(D)2/(Dx)2+(D)1(D)2/(Dx)1(Dx)2 [Equation 2]
(§6) where (D)1 and (D)2 are the concentrations of drug 1 and drug 2 which combined produce x% inhibition, and (Dx)1 and(Dx)2 are the concentrations of each drug which alone produce x% inhibition. CI=1 indicates an additive interaction, CI<1 indicates synergy, and CI>1 indicates antagonism. For each experiment CI's from several different effect levels and concentrations of a constant molar ratio were averaged.
(§7) In general, a combination index of <1 indicates synergy, ˜1 indicates additivity, and >1 indicates antagonism (Pegram, M. D. et al. (1999)).
On the technique in general: Resazurin is reduced to fluorescent resorufin, in cell work by metabolically active cells.

The subject of assay [2] is CCD18co normal colon epithelial cells. In words: 96-well crystal violet combination cytotoxicity assay with NB1011. As to conditions: for Average combination index (CI): drug combined with NB1011 at constant molar ratio, CCD18co normal cells, 96-well crystal violet, 72 hour incubation; for Interaction: interaction with NB1011, CCD18co. On the procedure: as §1, §2
(§8) Exponentially rowing cells were transferred at a density of 1.0−5.5×10^3 cells per well to a 96-well tissue culture plate and allowed to attach for 24 hours. Compounds were then applied in duplicate half log serial dilutions. Each compound was tested separately, and mixed together at a single molar ratio approximately equal to the ratio of the individual IC50 values. After an additional 72 hour incubation, cells were washed once with PBS and stained with 0.5% crystal violet in methanol. Plates were washed gently in water to remove unbound stain and allowed to dry overnight. Crystal violet stain bound to the total protein of attached cells was redissolved in Sorenson's buffer (0.025 M sodium citrate, 0.025 M citric acid in 50% ethanol), and absorbance monitored at 535 nm. Sigmoid curves were fit according to the Hill inhibitory Emax model, and IC50 calculated as the average of three or more separate determinations. Where applicable, the combination index for multiple drug effects was calculated according to the median-effect principle (Chou, T. C. and Talalay, P. 1984) using the CalcuSyn software from Biosoft (Ferguson, Mo.). Briefly, the IC50 and the slope parameter (m) for each agent alone were determined from the median effect plot, an x,y plot of log(D) vs log (fa/fu) based on Chou's median effect equation:
(§9) fa/fu=(D/Dm)^m [Equation 1]
as §4, §5, §6
(§10) The 96-well format was chosen for more detailed drug interaction studies. […] To analyze whether any of these drugs would enhance the activity of NB1011 specifically in tumor cells, two normal cell types, Det551 and CCD18co, were included in the assays.

For assay [3], the system named is Det551 normal skin fibroblasts. The description is as above. As to conditions: for Average combination index (CI): drug combined with NB1011 at constant molar ratio, Det551 normal cells, 96-well crystal violet, 72 hour incubation; for Interaction: interaction with NB1011, Det551. On the procedure: as §1, §2, §8, §9, §4, §5, §6, §10
Assay [4] concerns H630R10 cells. Described as above. Conditions: for Average combination index (CI): drug combined with NB1011 at constant molar ratio, 96-well crystal violet, 72 hour incubation; for Interaction: interaction with NB1011. On the procedure:
as §1, §2, §8, §9, §4, §5, §6, §10

Assay [5] concerns MCF7TDX cells. Described as above. As to conditions: for Average combination index (CI): drug combined with NB1011 at constant molar ratio, 96-well crystal violet, 72 hour incubation; for Interaction: interaction with NB1011. On the procedure:
as §1, §2, §8, §9, §4, §5, §6, §10

Assay [6] has as its system H630R10 cells. In words: 384-well alamarBlue interaction screening assay with NB1011. Conditions: drug combined with NB1011, 5-day incubation, average of at least 4 consecutive dose/effect levels. On the procedure:
as §1, §2, §3, §4, §5, §6, §7

This note sets out measurements from patent US20020147175A1, “Synergistic ECTA compositions” (priority 2000, published 2002).

`N.N.[Cl][Pt][Cl]` [Cisplatin]: in the assay on MCF7TDX cells [1], the “Combination Index ± s.e.m.” value was 1.51 ± 0.35.
With `OCCN(CCO)c1nc(N2CCCCC2)c2nc(N(CCO)CCO)nc(N3CCCCC3)c2n1` [Dipyridamole, dipyridamole], the “Average combination index (CI)” value in assay [2] turned out to be 1.30; in assay [3] it was 1.17; with H630R10 cells [4], 0.75; in the assay with MCF7TDX cells [5], 0.51. For the same compound, the Interaction entry in assay [2] is on record as “Ant”; in assay [3], “Add”; in the assay with H630R10 cells [4] it was “Syn”; in the assay on MCF7TDX cells [5], “Syn”.
Regarding `COc1cccc2c1C(=O)c1c(O)c3c(c(O)c1C2=O)C[C@@](O)(C(=O)CO)C[C@@H]3O[C@H]1C[C@H](N)[C@H](O)[C@H](C)O1` [Doxorubicin], the Interaction entry with H630R10 cells [4] and in the assay on MCF7TDX cells [5] was “Ant” throughout.
With `CCc1c2c(nc3ccc(OC(=O)N4CCC(N5CCCCC5)CC4)cc13)-c1cc3c(c(=O)n1C2)COC(=O)[C@]3(O)CC` [Irinotecan], the “Combination Index ± s.e.m.” value with H630R10 cells [6] is recorded as 1.26 ± 0.20.
As for `O=[N+]([O-])c1ccc(CSc2ncnc3c2ncn3C2OC(CO)C(O)C2O)cc1` (stereo not shown) [NBMPR, p-nitrobenzylthioinosine], the “Average combination index (CI)” value in assay [2] amounted to 3.93; in assay [3], 1.43; with H630R10 cells [4] it was 0.35; in the assay on MCF7TDX cells [5], 0.57. For the same compound, the Interaction entry was “Ant” in assay [2], “Ant” in assay [3], “Syn” in the assay with H630R10 cells [4] and “Syn” in the assay with MCF7TDX cells [5].
Take `O=C1[O][Pt]2([NH][C@@H]3CCCC[C@H]3[NH]2)[O]C1=O` [Oxaliplatin]: the Interaction result with H630R10 cells [4] and in the assay with MCF7TDX cells [5] was “Ant” each time.
Take `CC(=O)O[C@H]1C(=O)[C@@]2(C)[C@H]([C@H](OC(=O)c3ccccc3)[C@]3(O)C[C@H](OC(=O)[C@H](O)[C@@H](NC(=O)c4ccccc4)c4ccccc4)C(C)=C1C3(C)C)[C@]1(OC(C)=O)CO[C@@H]1C[C@@H]2O` [Taxol]: in the assay on H630R10 cells [6], the “Combination Index ± s.e.m.” value was 0.99 ± 0.15.
Consider `CC[C@]1(O)C[C@@H]2CN(CCc3c([nH]c4ccccc34)[C@@](C(=O)OC)(c3cc4c(cc3OC)N(C)[C@H]3[C@@](O)(C(=O)OC)[C@H](OC(C)=O)[C@]5(CC)C=CCN6CC[C@]43[C@@H]65)C2)C1` [Vinblastine], for which the “Combination Index ± s.e.m.” value in the assay on H630R10 cells [6] stood at 0.78 ± 0.32. Moreover, the Interaction entry in assay [2] is given as “Syn”; in assay [3], “Syn”; in the assay with H630R10 cells [4] it was “Syn”; in the assay on MCF7TDX cells [5], “Ant”.
